Results published in ChEMBL document CHEMBL1133239, “Acid catalyzed Michael additions to artemisitene” (2000).

Experiments:
Plasmodium falciparum [1] = experiment: Relative antimalarial activity compared to artemisinin against Plasmodium falciparum D6; type: functional
Plasmodium falciparum [2] = experiment: Relative antimalarial activity compared to artemisinin against Plasmodium falciparum W-2; type: functional

Structure (SMILES)	Relative activity (Plasmodium falciparum [1])	Relative activity (Plasmodium falciparum [2])
C[C@@H]1CC[C@H]2[C@@H](CC#N)C(=O)O[C@@H]3O[C@@]4(C)CC[C@@H]1[C@]32OO4	0.17	0.036
C[C@@H]1CC[C@H]2[C@@H](CC3C=CC(=O)O3)C(=O)O[C@@H]3OC4(C)CC[C@@H]1[C@]32OO4 (single isomer, unassigned)	0.058	0.03
C[C@@H]1CC[C@H]2[C@@H](CC/C(=C/C(=O)c3ccccc3)c3ccccc3)C(=O)O[C@@H]3OC4(C)CC[C@@H]1[C@]32OO4 (single isomer, unassigned)	6.2	0.55
C[C@@H]1CC[C@H]2[C@H](CC3C=CC(=O)O3)C(=O)O[C@@H]3OC4(C)CC[C@@H]1[C@]32OO4 (single isomer, unassigned)	0.33	0.037
C[C@@H]1CC[C@H]2[C@@H](CC3CCCC3=O)C(=O)O[C@@H]3OC4(C)CC[C@@H]1[C@]32OO4 (single isomer, unassigned)	0.47	0.29
C[C@@H]1CC[C@H]2[C@@H](CCC(=O)C(C)(C)C)C(=O)O[C@@H]3OC4(C)CC[C@@H]1[C@]32OO4 (single isomer, unassigned)	7.4	1.13
C[C@@H]1CC[C@H]2[C@H](CCC(=O)C(C)(C)C)C(=O)O[C@@H]3OC4(C)CC[C@@H]1[C@]32OO4 (single isomer, unassigned)	4.5	0.74
C[C@@H]1CC[C@H]2[C@H](CC#N)C(=O)O[C@@H]3OC4(C)CC[C@@H]1[C@]32OO4 (single isomer, unassigned)	0.17	0.036
C=CCC[C@H]1C(=O)O[C@@H]2OC3(C)CC[C@H]4[C@H](C)CC[C@@H]1[C@@]24OO3 (single isomer, unassigned)	2.3	2.9
